Test results published in patent US6015805A, “17β-nitro-11β-arylisteroids and their derivatives having agonist or antagonist hormonal properties” (Research Triangle Research North Carolina, priority 1999, dated 2000).

Tests used:
[1] = target: T1, glucocorticoid receptor (rGR) (Oryctolagus cuniculus, UniProt P59667); assay: Receptor binding (rabbit), glucocorticoid receptor; conditions: relative to dexamethasone = 100
T1 construct: the source of the glucocorticoid receptor was the thymus of the estrogen-primed immature female rabbit; from tissue; host or cells: thymus of the estrogen-primed immature female rabbit
T1 sequence (P59667 1-772): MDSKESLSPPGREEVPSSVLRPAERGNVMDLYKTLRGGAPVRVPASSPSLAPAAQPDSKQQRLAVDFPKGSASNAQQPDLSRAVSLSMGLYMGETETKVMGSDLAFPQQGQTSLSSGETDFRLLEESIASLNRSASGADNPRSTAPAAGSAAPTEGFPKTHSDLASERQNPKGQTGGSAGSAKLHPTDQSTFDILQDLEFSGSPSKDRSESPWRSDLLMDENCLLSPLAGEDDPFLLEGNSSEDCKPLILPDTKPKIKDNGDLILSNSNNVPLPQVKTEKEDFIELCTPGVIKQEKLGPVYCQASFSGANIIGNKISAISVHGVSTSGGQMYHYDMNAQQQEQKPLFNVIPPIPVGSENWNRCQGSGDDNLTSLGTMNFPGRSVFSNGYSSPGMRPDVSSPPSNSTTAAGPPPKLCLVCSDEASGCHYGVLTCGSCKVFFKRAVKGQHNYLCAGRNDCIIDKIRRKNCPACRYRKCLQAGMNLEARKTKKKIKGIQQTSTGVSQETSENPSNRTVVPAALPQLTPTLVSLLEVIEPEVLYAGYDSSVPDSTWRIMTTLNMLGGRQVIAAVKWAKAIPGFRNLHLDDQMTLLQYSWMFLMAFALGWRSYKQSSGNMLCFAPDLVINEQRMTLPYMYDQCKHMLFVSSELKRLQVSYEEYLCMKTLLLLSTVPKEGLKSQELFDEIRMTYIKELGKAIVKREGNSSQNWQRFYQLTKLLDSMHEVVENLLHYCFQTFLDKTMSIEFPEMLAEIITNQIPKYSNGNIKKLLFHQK
Procedure: (§1) The affinity of the compounds for hormone receptors for progestins and glucocorticoids from rabbits was determined by standard procedures similar to those that have been described in C. E. Cook, et al., Human Reproduction, Volume 9, supplement 1, pp. 32-39 (1994). However, the source of the glucocorticoid receptor was the thymus of the estrogen-primed immature female rabbit. The affinity of the compounds for the human progesterone hormone receptor was determined by standard procedures similar to those that have been described in Horwitz, et al., Cell, 28: 633-42 (1982) and Mockus, et al., Endocrinology, 110: 1564-71 (1982). The receptor was obtained in cytosol from human T-47D breast cells and [^3 H]-R5020 was used as the radioligand. T47D cells (1 billion/mL) were homogenized in TEDG buffer (10 mM Tris, 1.5 mM EDTA, 1 mM dithiothreitol, 1 mM sodium molybdate, and 10% glycerol) using a Dounce pestle A, and the homogenate was centrifuged at 34,000×g for 1 hour. The supernatant was stored at -80° C. An aliquot of receptor preparation was combined with test compound, 0.4 nM [^3 H]-R5020, and TEDG buffer to a final volume of 150 ,μL and incubated for 4 hours at 4° C. in microtiter plates. At the end of incubation 40 μL 40% polyethylene glycol and 15 μL 1% human gamma globulin was added to the incubate and the contents of each well were harvested onto double thick B filter mats (Wallac LKB) using a TomTec harvester. A film of Meltilux scintillant wax was applied to the dried filter mats and the mats were counted in a scintillation counter to determine inhibition of [^3 H]-R5020 binding. Data are expressed as lC50 values, i.e., the concentration of compound that inhibits radioligand binding by 50%.

[2] = test system: estrogen-primed immature female rabbits; assay: Anti-Clauberg assay (oral test compound with subcutaneous progesterone); assay type: in vivo, rabbit; conditions: given orally together with subcutaneous progesterone; McPhail Index
[3] = target: T2, progestin receptor (rPR) (Oryctolagus cuniculus, UniProt P06186); assay: Receptor binding (rabbit), progestin receptor; conditions: for Ratio PR/GR: ratio of rPR to rGR relative affinities; for Relative Binding Affinity, rPR, Relative Affinity (Progesterone): relative to progesterone = 100, rabbit progestin receptor
T2 construct: hormone receptors for progestins and glucocorticoids from rabbits; from tissue; host or cells: rabbit
T2 sequence (P06186 1-930): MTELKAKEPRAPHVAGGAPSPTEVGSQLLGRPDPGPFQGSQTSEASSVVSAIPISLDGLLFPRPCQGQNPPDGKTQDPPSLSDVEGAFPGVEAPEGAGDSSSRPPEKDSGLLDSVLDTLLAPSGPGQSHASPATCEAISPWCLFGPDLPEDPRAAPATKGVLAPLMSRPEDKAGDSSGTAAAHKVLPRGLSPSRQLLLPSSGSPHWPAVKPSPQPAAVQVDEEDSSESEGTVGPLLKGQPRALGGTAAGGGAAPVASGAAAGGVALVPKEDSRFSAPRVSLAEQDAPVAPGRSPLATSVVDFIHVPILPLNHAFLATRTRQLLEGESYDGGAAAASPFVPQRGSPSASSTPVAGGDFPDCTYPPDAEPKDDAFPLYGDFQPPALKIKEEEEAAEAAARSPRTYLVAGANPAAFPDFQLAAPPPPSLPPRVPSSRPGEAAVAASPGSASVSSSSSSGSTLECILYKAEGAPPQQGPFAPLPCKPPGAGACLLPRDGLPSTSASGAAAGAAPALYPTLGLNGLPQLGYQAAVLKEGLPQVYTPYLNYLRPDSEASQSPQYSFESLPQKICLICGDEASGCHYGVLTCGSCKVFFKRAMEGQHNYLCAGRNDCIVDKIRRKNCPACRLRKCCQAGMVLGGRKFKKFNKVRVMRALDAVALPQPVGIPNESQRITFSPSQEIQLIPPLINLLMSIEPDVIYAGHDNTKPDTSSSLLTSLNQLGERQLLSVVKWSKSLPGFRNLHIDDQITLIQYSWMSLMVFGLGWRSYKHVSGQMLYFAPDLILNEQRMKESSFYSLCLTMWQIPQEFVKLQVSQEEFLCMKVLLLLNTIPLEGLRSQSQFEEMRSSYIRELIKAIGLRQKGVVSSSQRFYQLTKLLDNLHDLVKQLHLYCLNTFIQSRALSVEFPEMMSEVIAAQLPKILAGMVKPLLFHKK

[4] = test system: rabbits; assay: Anti-McGinty assay (antiprogestational activity, test compound plus progesterone); assay type: in vivo, rabbit; parameters: key to McPhail Index, Anti-McGinty Assay, Standard / McPhail Index, Anti-McGinty Assay (Antagonist): McPhail scoring scale for progestational endometrial response; conditions: for McPhail Index, Anti-McGinty Assay (Antagonist): plus progesterone
Procedure: (§2) Progestational activity and antiprogestational activity were determined in rabbits by means of the McGinty test (test compound alone, procedure of McGinty et al., Endocrinology, 24: 829-832 (1939)) or anti-McGinty test (test compound plus progesterone, procedure of Tamara et al., Jpn. J. Fertil Steril 24: 48-81 (1979)). Results were scored according to McPhail (McPhail, J Physiol., 83: 146 (1934)). These are standard procedures known to those skilled in the art. The results of these assays are shown in Tables 4 (agonist activity) and 5 (antagonist activity). […] Physiol, 83: 146 (1934)).

[5] = target: T3, human progesterone hormone receptor (hPR) (Homo sapiens, UniProt P06401); assay: Receptor binding (human), inhibition of [^3 H]-R5020 binding; conditions: cytosol from human T-47D cells; 0.4 nM [^3 H]-R5020; 4 hours at 4° C.
T3 construct: The receptor was obtained in cytosol from human T-47D breast cells; endogenous in cells; host or cells: T-47D human breast cells (cytosol)
T3 sequence (P06401 1-933): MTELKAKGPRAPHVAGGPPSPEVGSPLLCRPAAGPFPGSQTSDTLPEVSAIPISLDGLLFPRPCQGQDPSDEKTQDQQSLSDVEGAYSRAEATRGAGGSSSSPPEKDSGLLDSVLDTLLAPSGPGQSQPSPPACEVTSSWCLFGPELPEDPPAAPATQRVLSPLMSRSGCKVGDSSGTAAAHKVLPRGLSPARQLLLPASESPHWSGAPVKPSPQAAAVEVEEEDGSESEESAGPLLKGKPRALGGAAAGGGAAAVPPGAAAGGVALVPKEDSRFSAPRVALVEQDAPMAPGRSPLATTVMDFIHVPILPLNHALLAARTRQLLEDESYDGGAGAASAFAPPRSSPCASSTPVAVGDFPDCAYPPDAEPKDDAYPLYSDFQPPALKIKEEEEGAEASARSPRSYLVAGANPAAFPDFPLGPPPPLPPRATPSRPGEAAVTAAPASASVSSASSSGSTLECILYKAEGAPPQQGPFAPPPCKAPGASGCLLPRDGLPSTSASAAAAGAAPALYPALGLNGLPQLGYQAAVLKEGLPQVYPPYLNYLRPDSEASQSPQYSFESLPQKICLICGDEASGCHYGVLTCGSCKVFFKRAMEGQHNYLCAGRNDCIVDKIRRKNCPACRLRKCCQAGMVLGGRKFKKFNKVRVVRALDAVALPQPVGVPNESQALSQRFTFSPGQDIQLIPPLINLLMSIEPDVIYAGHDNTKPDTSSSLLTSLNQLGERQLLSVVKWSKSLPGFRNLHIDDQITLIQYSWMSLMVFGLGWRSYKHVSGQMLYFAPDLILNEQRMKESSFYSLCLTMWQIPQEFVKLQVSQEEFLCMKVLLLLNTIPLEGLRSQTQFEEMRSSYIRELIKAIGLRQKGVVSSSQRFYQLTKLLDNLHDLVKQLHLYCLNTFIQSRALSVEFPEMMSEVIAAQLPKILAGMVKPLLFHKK
Procedure: as §1

[6] = test system: rabbits; assay: McGinty assay (progestational activity, test compound alone); assay type: in vivo, rabbit; parameters: key: McPhail scoring scale for progestational endometrial response
Procedure: as §2

[7] = test system: glucocorticoid receptor; conditions: in words; cited from earlier work

Compound | Relative Binding Affinity, rGR, Relative Affinity (Dexamethasone) [1] | Ratio PR/GR [3] | Relative Binding Affinity, rPR, Relative Affinity (Progesterone) [3] | also measured
CC#C[C@]1([N+](=O)[O-])CC[C@H]2[C@@H]3CCC4=CC(=O)CCC4=C3[C@@H](c3ccc(N(C)C)cc3)C[C@@]21C [I 4-Me2 N H O H --CC--CH3, 11β-[4-(N,N-Dimethylamino)phenyl]-17β-nitro-17α-(1-propynyl)estra-4,9-dien-3-one] | 36 | 1.5 | 55 | antiprogestational activity in the anti-Clauberg assay [2]: potent antiprogestin
CN(C)c1ccc([C@H]2C[C@@]3(C)[C@@H](CC[C@]3(/C=C/CO)[N+](=O)[O-])[C@@H]3CCC4=CC(=O)CCC4=C32)cc1 [I 4-Me2 N H O H CH=CHCH2 OH, 11β-[4-(N,N-Dimethylamino)phenyl]-17α-[(E)-1-(3-hydroxy)propenyl]-17β-nitroestra-4,9-dien-3-one] | 16 | 3.5 | 56 | –
CSc1ccc([C@H]2C[C@@]3(C)[C@@H](CC[C@]3(CCCO)[N+](=O)[O-])[C@@H]3CCC4=CC(=O)CCC4=C32)cc1 [I 4-MeS H O H --(CH2)3 OH, 17α-(3-Hydroxypropyl)-11β-[4-(methylthio)phenyl]-17β-nitroestra-4,9-dien-3-one] | 3 | 20.3 | 61 | –
CSc1ccc([C@H]2C[C@@]3(C)[C@@H](CC[C@]3(C=CCO)[N+](=O)[O-])[C@@H]3CCC4=CC(=O)CCC4=C32)cc1 [I 4-MeS H O H CH=CHCH2 OH] | – | – | 32 | –
C[S+]([O-])c1ccc([C@H]2C[C@@]3(C)[C@@H](CC[C@]3(CCCO)[N+](=O)[O-])[C@@H]3CCC4=CC(=O)CCC4=C32)cc1 (stereo partly drawn) [I 4-MeS(O) H O H --(CH2)3 OH, 17α-(3-Hydroxypropyl)-11β-[4-(methylsulfinyl)phenyl]-17β-nitroestra-4,9-dien-3-one] | < 2 | > 10 | 23 | –
CC(=O)c1ccc(C2CC3(C)C(CCC34CCC(C)=[N+]4[O-])C3CCC4=CC(=O)CCC4=C23)cc1 (stereo not drawn) [II 4-CH3 CO H O H -- CH3, 11β-(4-Acetylphenyl)-3',4'-dihydro-5'-methyl-1'-oxo-spiro[estra-4,9-dien-17β,2'(2'H)-pyrrole]-3-one] | – | – | 21 | –
CN(C)c1ccc([C@H]2C[C@@]3(C)[C@@H](CC[C@@]34CCC=[N+]4[O-])[C@@H]3CCC4=CC(=O)CCC4=C32)cc1 [II 4-Me2 N H O H -- H, 11β-[4-(N,N-Dimethylamino)phenyl]-3',4'-dihydro-1'-oxo-spiro[estra-4,9-dien-17β,2'(2'H)-pyrrole]-3-one] | – | – | – | McPhail Index, Anti-McGinty Assay (Antagonist) ([4]; dose 0.3 micrograms): 2.0 ± 0.11; McPhail Index, Anti-McGinty Assay (Antagonist) ([4]; dose 3 micrograms): 1.83 ± 0.2; McPhail Index, Anti-McGinty Assay (Antagonist) ([4]; dose 30 micrograms): 0.23 ± 0.23; IC50 [5]: 18 nM; McPhail Index, McGinty Assay (Agonist) ([6]; dose 0.3 micrograms): 0 ± 0; McPhail Index, McGinty Assay (Agonist) ([6]; dose 3 micrograms): 0 ± 0; McPhail Index, McGinty Assay (Agonist) ([6]; dose 30 micrograms): 0 ± 0
CC(=O)[C@H]1CC[C@H]2[C@@H]3CCC4=CC(=O)CC[C@]4(C)[C@H]3CC[C@]12C [Progesterone, reference compound] | – | – | – | McPhail Index, Anti-McGinty Assay, Standard ([4]; standard, dose not given): 2.45 ± 0.14; McPhail Index, McGinty Assay, Standard ([6]; standard, dose not given): 2.45 ± 0.14
CC#C[C@]1(O)CC[C@H]2[C@@H]3CCC4=CC(=O)CCC4=C3[C@@H](c3ccc(N(C)C)cc3)C[C@@]21C [mifepristone] | – | – | – | glucocorticoid or antiglucocorticoid activity as side-effect [7]: significant side-effect
